{"source": "paper PMC10967572", "about": "“Induction of Oxidative Stress and Ferroptosis in Triple-Negative Breast Cancer Cells by Niclosamide via Blockade of the Function and Expression of SLC38A5 and SLC7A11” (Antioxidants, 2024)", "key": {"[1]": {"test_system": "TNBC cells (MB231 and TXBR100)", "assay": "MTT cell proliferation / viability assay", "assay_type": "cell-based, human", "settings": "niclosamide 2 μM, 72 h, MB231 and TXBR100", "protocol": "Cells were seeded in 96-well plates; after 24 h, niclosamide treatment was initiated. Cells were then cultured for 72 h with fresh medium containing freshly prepared niclosamide supplied every 24 h. Cells were washed with phosphate-buffered saline twice followed by MTT reagent (ATCC). Treatment and lysis of the cells were done as per the manufacturer’s instructions. Absorbance of the lysate was measured at 550 nm. Cell viability assay with various cell-death inhibitors was also performed as described above. Cells were treated with niclosamide (1 µM) along with cell death inhibitors (10 µM), except hydroxychloroquine (25 µM) for 48 h."}, "MB231 xenograft": {"test_system": "MB231 xenograft", "assay": "Mouse xenograft tumor growth", "assay_type": "in vivo", "settings": "MB231 xenograft in nude mice; niclosamide 4 mg/kg daily intraperitoneal", "protocol": "Female athymic nude mice (4-week-old) were purchased from Jackson Laboratories and housed under standard conditions. MDA-MB231 cells were injected into lower mammary fat pad (5 × 10^6 cells). All cells were suspended in serum-free media and Matrigel (1:1 ratio), with 100 µL of suspension being injected into each mouse. Mice were treated by daily intraperitoneal injection of niclosamide (4 mg/kg/day) and vehicle (dimethylsulfoxide) control. The treatment began when the tumor size was 100–150 mm^3. Tumor size was measured biweekly with a caliper, with tumor volume calculated using the formula (width^2 × length)/2. Tumors were allowed to grow for 7 weeks; mice were then euthanized via isoflurane […] and tumors harvested. The animal study protocol was approved by the Texas Tech University Health Sciences Center Institutional Animal Care and Use Committee (IACUC protocol number 18005) and the experiments were conducted in the same institution. RNA and protein were prepared from the tumor tissue for qRT-PCR and Western blotting."}, "[2]": {"design": "method as in PMID 31078739, PMID 33737681", "settings": "oral; cited from earlier work"}, "SLC38A5 and SLC7A11 mRNA": {"test_system": "SLC38A5 and SLC7A11 mRNA", "assay": "qRT-PCR of SLC38A5 and SLC7A11 mRNA in TNBC cells", "assay_type": "cell-based, human", "settings": "niclosamide 2 μM, 24 h; MB231 and TXBR100", "protocol": "Total RNA was extracted from cells using TRIzol Reagent (ThermoFisher Scientific, Waltham, MA, USA) and the RNA was reverse-transcribed using a high-capacity cDNA reverse transcription kit (ThermoFisher Scientific, Waltham, MA, USA) according to the manufacturer’s protocol. Quantitative RT-PCR was performed with Takara Taq Hot Start Version (TaKaRa Biotechnology, Shiga, Japan) or Power SYBR Green PCR master mix (Bio-Rad, Hercules, CA, USA). Primer sequences are shown in Supplemental Table S1. The relative mRNA expression was determined by the 2^−∆∆Ct method. Additionally, 18S was used as a housekeeping gene for normalization."}}}
{"smiles": "O=C(Nc1ccc([N+](=O)[O-])cc1Cl)c1cc(Cl)ccc1O", "note": "[niclosamide]", "values": [{"measurement": "decrease in cell proliferation", "setting": "[1]", "result": "> 50", "unit": "%"}, {"measurement": "growth of the tumors", "setting": "MB231 xenograft", "result": "drastic reduction"}, {"measurement": "bioavailability when given orally", "setting": "[2]", "result": "low"}, {"measurement": "SLC7A11 mRNA level", "setting": "SLC38A5 and SLC7A11 mRNA", "result": "decreased"}, {"measurement": "SLC38A5 mRNA level", "setting": "SLC38A5 and SLC7A11 mRNA", "result": "decreased"}]}
